In patent publication EP0829477A1, “NOVEL PHYSIOLOGICALLY ACTIVE NA23063 ANALOGUES, PROCESS FOR PRODUCING THE SAME AND USE OF THE SAME” (NIPPON KAYAKU KABUSHIKI KAISHA, priority 1995, dated 1996):

Assays:
Bovine Phosphodiesterase = test: Phosphodiesterase inhibiting activity (cAMP substrate, remaining cAMP measured by HPLC); format: biochemical; details: for IC50: inhibition of phosphodiesterase, from Table 2 data, read-out: IC 50 values
Protocol: Fifity g of the respiratory smooth muscle of a sacrificed cow was cut into pieces with scissors and a knife, then suspended in 2 mM EDTA-containing 20 mM Tris buffer (pH 7.4) of 5 times by volume the pieces, and homogenized with a polytron homogenizer to prepare a crude phosphodiesterase liquid. This was centrifuged at 10,000 x g for 20 minutes to collect the supernatant, which is a soluble, crude phosphodiesterase liquid. This was put into a Q-Sepharose fast-flow column (100 ml), washed with a buffer, and then eluted with sodium acetate having a gradient concentration of from 50 mM to 1 M. The phosphodiesterase-containing active fraction eluted with 0.7 M sodium acetate was collected.
To determine its phosphodiesterase activity, the enzyme was reacted with a substrate, 3',5'-cyclic adenosine monophosphate (cAMP, manufactured by Sigma Co. in US). After the reaction, the remaining cAMP was measured through high-performance liquid chromatography.
0.02 mg/ml of cAMP, 2.5 mM dithiothreitol, 6 mM magnesium chloride, 50 mM Tris buffer (pH 8.0), 1 µl of the phosphodiesterase liquid prepared above, and a varying amount of the compound of the invention were put into plastic tubes having a volume of 0.3 ml, to which was added water to have a final volume of 200 µl. The mixture was stirred, and incubated at 37°C for 60 minutes. 20 µl of an aqueous solution of 200 mM tetraethylenediamine was added to each tube to stop the reaction. 20 µl of the resulting reaction mixture was subjected to high-performance liquid chromatography (ODS column of 3.9 mm⌀ x 150 mm, manufactured by Waters Co. in US), through which the remaining cAMP was measured. From the data, obtained was the activity of the compound of the invention of inhibiting the enzyme phosphodiesterase, as in Table 2.

guinea pig oxyphiles = test: Inhibition of activation of oxyphiles (PAF-induced release of active oxygen, luminol chemiluminescence); format: cell-based, Hartley guinea pigs; details: Cavia porcellus, 5 min; PAF stimulation, chemiluminescence for 5 minutes; read-out: IC50 (x 10^-6 M)
Protocol: One mg of polymyxin B (manufactured by Sigma Co.) was intra-abdominally administered to Hartley guinea pigs (6-week age). The chemical was administered to the animals once a week, for 6 to 8 weeks. After the final administration of the chemical polymyxin B, 50 ml of PBS (phosphate-buffered saline) was injected into the abdomen of each guinea pig, and the abdominal cells were collected. These were centrifuged at 800 rpm for 5 minutes to collect the precipitate of abdominal infiltrated cells. The precipitated cells were suspended in 1 ml of 40 % Ficol solution (40 % Ficol (manufactured by Pharmacia Co.) in HBSS (Hanks' […] salt solution)), and stratified over a discontinuous density gradient of Ficol (40 to 90 %). This was centrifuged at 1500 rpm for 40 minutes to collect the oxyphile fraction. This operation generally produced oxyphiles having a purity of 99 % or higher. The cells were washed two times with an RPMI1640 medium (0.2 % BSA (bovine serum albumin), manufactured by Boehringer Mannheim Co.), then suspended to have a predetermined cell concentration, and used in the intended experiments. (B) Effect of Inactivating Oxyphiles (Effect of inhibiting the activity of guinea pig oxyphiles to release active oxygen):
2 µl of each chemical to be tested and 180 µl of the cell suspension were added to each well of a 96-well multiwell plate (white plate for chemiluminometry) which had been previously kept at 37°C, and kept therein at 37°C for 10 minutes. After thus kept, 20 µl of PAF (platelet activating factor) (x -10^-6 M) and 20 µl of a luminol solution were added thereto, and immediately the intensity of chemiluminescence of the system was measured, using […]. The data of chemiluminescence for 5 minutes were obtained, from which was calculated the 50 % inhibition concentration of the compound tested (IC50).

[1] = Solubility of the isolated substances in solvents; format: physicochemical; details: qualitative; for Solubility: various solvents
Protocol: These pure NA23063A, NA23063B1, NA23063B2, NA23063C and NA23063D were tested for their appearance, molecular weight, solubility, Rf value in silica gel thin-layer column chromatography, UV absorption spectrum, IR absorption spectrum, ^1H-NMR spectrum, and ^13C-NMR spectrum. The physicochemical properties of NA23063A, B1, B2, C and D thus obtained have been shown hereinabove.

bronchial smooth muscle = test: Inhibition of contraction of bronchial smooth muscle (histamine-contracted tracheal strips in an organ bath); set-up: species or system Hartley guinea pigs; details: 10 µg/ml; contraction with 10 µM histamine = 100 %, relaxation with papaverine = 0 %
Protocol: The tracheae were taken out of male Hartley guinea pigs having a body weight of from 400 to 500 g. These were cut off at the cartilage opposite to the smooth muscle, and sliced into small pieces having a width of 1 mm. Five of these pieces were bound with silk thread into one bundle, of which the both ends were ligated with machine cotton. This was then suspended in an organ bath with applying thereto a tension of 0.5 g. The temperature of the bath was 37°C, and the bath contained a nutrient liquid of Krebs-Hanseleit buffer (118 mM NaCl, 4.6 mM KCl, 1.1 mM MgSO4·7H2O, 1.8 mM CaCl2·2H2O, 24.9 mM NaHCO3, 1.0 mM KH2PO4·2H2O, 11.1 mM glucose). To the nutrient liquid, added was 5 µM indomethacin. The bath was well aerated with a mixed gas of 95 % O2 + 5 % CO2. The suspended tissue was incubated in the organ bath for about 2 hours for habituation in the external environment. Then, this was contracted with 10 µM histamine. After the contraction was stabilized, NA23063D was added to the bath to have a concentration of 0.1, 0.3, 1.0, 3.0, 10 and 30 µg/ml. The reaction in the bath comprising the varying amount of NA23063D was continued until the relaxation of the tissue became stabilized. When no relaxation was admitted in 10 minutes after the addition of the chemical, NA23063D, the concentration of the chemical was increased to the next stage. […]

[2] = tested on: respiratory tract resistance; test: Inhibition of immediate allergic respiratory stenosis in ovalbumin-sensitized asthmatic animal models; format: in vivo, Brown-Norway (BN) rats; details: intravenous administration of 30 mg/kg, rat models, relative to control maximum resistance after antigen
Protocol: An antigen ovalbumin (OA) was administered to male Brown-Norway (BN) rats to prepare actively-sensitized animal models. To sensitize the animals, 1 ml of the antigen solution (100 mg/ml of Al(OH)3 and 1 mg/ml of OA in aqueous 0.9 % NaCl solution) was subcutaneously administered to the back of each rat. On the other hand, inactivated cells of Bordetella pertussis were suspended in an aqueous solution of 0.9 % NaCl to have a concentration of 1.0 x 10^10 cells/ml. 0.25 ml of the cell suspension was intra-abdominally administered to each rat along with the antigen sensitization. The administration was repeated three times in all, on the 1st, 7th and 14th days. […]
Those actively-sensitized BN rats were anesthetized with sodium pentobarbiturate (50 mg/kg, i.p.), into which was inserted a polyvinyl chloride tube cannula through the respiratory tract. Each rat was purged with air through the cannula, and the respiratory tract resistance was monitored. […] In addition, an additional cannula was inserted into the left common carotid artery of each rat, through which the blood pressure and the heart beat of the rat being tested were monitored. […] On the basis of the time (0, zero) at which the antigen was challenged, the variation (increase or decrease) in the respiratory tract resistance of each rat was recorded at regular intervals before and after the administration of the antigen. […]

SMILES	Inhibiting Activity (%) (Bovine Phosphodiesterase; Concentration 0.39 µg/ml)	Inhibiting Activity (%) (Bovine Phosphodiesterase; Concentration 0.78 µg/ml)	Inhibiting Activity (%) (Bovine Phosphodiesterase; Concentration 1.56 µg/ml)	Inhibiting Activity (%) (Bovine Phosphodiesterase; Concentration 3.13 µg/ml)	Inhibiting Activity (%) (Bovine Phosphodiesterase; Concentration 6.25 µg/ml)	IC50 (Bovine Phosphodiesterase)	IC50 (guinea pig oxyphiles)	Solubility [1]	relaxation of the bronchial smooth muscle (bronchial smooth muscle)	% inhibition (decrease in the respiratory tract resistance) [2]	Solubility in dimethylsulfoxide (DMSO) [1]
O=c1c(-c2ccc(O)c(-c3cc(-c4coc5cc(O)cc(O)c5c4=O)ccc3O)c2)coc2cc(O)cc(O)c12 [NA23063C]	26.4%	57.7%	66.5%	77.6%	83.8%	1300 nM	320 nM	soluble in lower alcohols, acetone, ethyl acetate and dimethylsulfoxide, but insoluble in hexane, petroleum ether and water	–	–	–
O=c1c(-c2ccc(O)c(-c3cc(-c4coc5cc(O)cc(O)c5c4=O)ccc3O)c2)coc2cc(O)ccc12 [NA23063D]	18.9%	30.7%	34.6%	44.8%	61.0%	7900 nM	1100 nM	soluble in lower alcohols, acetone, ethyl acetate and dimethylsulfoxide, but insoluble in hexane, petroleum ether and water	61%	54%	soluble
O=c1c(-c2ccc(O)c(Oc3ccc(-c4coc5cc(O)cc(O)c5c4=O)cc3)c2)coc2cc(O)ccc12 [NA23063B2]	17.5%	28.1%	38.2%	56.3%	64.9%	4900 nM	–	soluble in lower alcohols, acetone, ethyl acetate and dimethylsulfoxide, but insoluble in hexane, petroleum ether and water	–	–	–
O=c1c(-c2ccc(Oc3cc(-c4coc5cc(O)cc(O)c5c4=O)ccc3O)cc2)coc2cc(O)ccc12 [NA23063B1]	17.5%	28.1%	38.2%	56.3%	64.9%	4900 nM	–	soluble in lower alcohols, acetone, ethyl acetate and dimethylsulfoxide, but insoluble in hexane, petroleum ether and water	–	–	–
O=c1c(-c2ccc(Oc3cc(-c4coc5cc(O)cc(O)c5c4=O)ccc3O)cc2)coc2cc(O)cc(O)c12 [NA23063A]	–	43.5%	57.8%	60.5%	79.5%	2100 nM	100 nM	soluble in lower alcohols, acetone and ethyl acetate, but insoluble in hexane, petroleum ether and water	–	–	–
